Results published in ChEMBL document CHEMBL1150833, “Five novel highly oxygenated diterpenes of Orthosiphon stamineus from Myanmar” (2001).
Values after ≈ are worked out from the molar mass of the structure shown.

Key:
HT-1080 = assay: Antiproliferative activity against human HT1080 cells after 4 days by MTT assay; format: functional; conditions: HT-1080, 96 h, read-out: ED50 (the source's name)
[1] = Antiproliferative activity against mouse Colon 26-L5 cells after 4 days by MTT assay; format: functional; conditions: 96 h, read-out: ED50 (the source's name)

| SMILES | EC50 (HT-1080) | EC50 [1] |
| --- | --- | --- |
| C=C[C@@]1(C)CC(=O)[C@H]2[C@](O)(C1=O)[C@H](O)C[C@H]1C(C)(C)[C@H](OC(=O)c3ccccc3)[C@H](OC(C)=O)[C@H](OC(=O)c3ccccc3)[C@@]12C [ORTHOSIPHOL N] | 18.6 µg/mL (≈ 29.4 µM) | 35.1 µg/mL (≈ 55.5 µM) |
| COc1ccc(-c2cc(=O)c3c(O)c(OC)c(OC)cc3o2)cc1O [EUPATORIN] | 8.8 µg/mL (≈ 25.6 µM) | 3.7 µg/mL (≈ 10.7 µM) |
| C=C/C(=C\[C@H]1C(=O)[C@H](OC(C)=O)C[C@H]2C(C)(C)[C@H](O)[C@H](OC(C)=O)[C@H](OC(=O)c3ccccc3)[C@]12C)C(C)=O [NORSTAMINONE A] | 23.2 µg/mL (≈ 42.9 µM) | 12.8 µg/mL (≈ 23.7 µM) |
| COc1ccc(-c2cc(=O)c3c(O)c(O)c(OC)cc3o2)cc1 [LADANEIN] | 3 µg/mL (≈ 9.55 µM) | 2.3 µg/mL (≈ 7.32 µM) |
| C=C[C@@]1(C)C[C@@H](OC(=O)c2ccccc2)[C@H]2[C@](O)(C1=O)[C@H](OC(C)=O)C[C@H]1C(C)(C)[C@H](O)[C@H](OC(C)=O)[C@H](OC(=O)c3ccccc3)[C@@]12C [ORTHOSIPHOL A] | > 100 µg/mL | 63.1 µg/mL (≈ 93.2 µM) |
| COc1cc(/C=C/C(=O)OCCc2ccc(O)cc2)ccc1O | 47.1 µg/mL (≈ 150 µM) | 33.7 µg/mL (≈ 107 µM) |
| C=C[C@]1(C)C(=O)[C@]2(O)[C@H](OC(C)=O)C[C@H]3C(C)(C)[C@H](O)[C@H](OC(C)=O)[C@H](OC(=O)c4ccccc4)[C@]3(C)[C@H]2[C@H](OC(=O)c2ccccc2)[C@@H]1O [ORTHOSIPHOL L] | 20.6 µg/mL (≈ 29.7 µM) | 24.7 µg/mL (≈ 35.7 µM) |
| C=C[C@H]1[C@@H](OC(=O)c2ccccc2)[C@H]2[C@](O)(C(=O)[C@@]1(C)O)[C@H](OC(C)=O)C[C@H]1C(C)(C)[C@H](O)[C@H](OC(C)=O)[C@H](OC(=O)c3ccccc3)[C@@]12C [NEOORTHOSIPHOL A] | 96.3 µg/mL (≈ 139 µM) | 38.8 µg/mL (≈ 56 µM) |
| C=C[C@@]1(C)C[C@@H](OC(=O)c2ccccc2)[C@H]2[C@](O)(C1=O)[C@H](OC(C)=O)C[C@H]1C(C)(C)[C@H](OC(C)=O)[C@H](O)[C@H](OC(=O)c3ccccc3)[C@@]12C [ORTHOSIPHOL B] | 57.9 µg/mL (≈ 85.6 µM) | 28.1 µg/mL (≈ 41.5 µM) |
| C=C[C@@]1(C)C[C@@H](OC(=O)c2ccccc2)[C@H]2[C@](O)(C1=O)[C@H](OC(C)=O)C[C@H]1C(C)(C)[C@H](O)[C@H](O)[C@H](OC(=O)c3ccccc3)[C@@]12C [ORTHOSIPHOL K] | 21.8 µg/mL (≈ 34.3 µM) | 13.8 µg/mL (≈ 21.7 µM) |
| O=c1[nH]cc(F)c(=O)[nH]1 [FLUOROURACIL] | 0.48 µg/mL (≈ 3.69 µM) | 0.015 µg/mL (≈ 0.115 µM) |
| C=C[C@@]1(C)CC(=O)[C@H]2[C@](O)(C1=O)[C@H](OC(C)=O)C[C@H]1C(C)(C)[C@H](O)[C@H](OC(C)=O)[C@H](OC(=O)c3ccccc3)[C@@]12C [ORTHOSIPHOL M] | 81.7 µg/mL (≈ 143 µM) | 31.3 µg/mL (≈ 54.9 µM) |
| COc1ccc(-c2cc(=O)c3c(OC)c(OC)c(OC)cc3o2)cc1 | 4.5 µg/mL (≈ 13.1 µM) | 8.1 µg/mL (≈ 23.7 µM) |
| COc1ccc(-c2cc(=O)c3cc(OC)c(OC)c(OC)c3o2)cc1OC | 74.8 µg/mL (≈ 201 µM) | 31.4 µg/mL (≈ 84.3 µM) |
